Results published in ChEMBL document CHEMBL1123652, “Optimization and in vivo evaluations of a series of small, potent, and specific renin inhibitors containing a novel Leu-Val replacement” (J Med Chem, 1987).

Key:
[1] = target: T1, Renin (Homo sapiens, UniProt P00797); experiment: Evaluated in vitro for inhibitory potency against renin.
T1 sequence (P00797 whole entry): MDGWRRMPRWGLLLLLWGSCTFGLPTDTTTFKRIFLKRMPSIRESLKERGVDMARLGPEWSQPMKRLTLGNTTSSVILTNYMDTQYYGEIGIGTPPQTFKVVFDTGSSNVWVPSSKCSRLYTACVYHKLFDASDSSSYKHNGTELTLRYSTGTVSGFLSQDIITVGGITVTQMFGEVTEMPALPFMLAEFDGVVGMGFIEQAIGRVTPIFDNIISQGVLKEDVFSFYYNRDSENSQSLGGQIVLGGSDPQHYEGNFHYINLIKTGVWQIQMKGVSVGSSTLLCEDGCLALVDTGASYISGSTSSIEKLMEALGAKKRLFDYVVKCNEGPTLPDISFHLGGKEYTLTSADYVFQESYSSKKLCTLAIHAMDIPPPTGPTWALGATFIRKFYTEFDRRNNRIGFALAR

[2] = target: Pepsin A (Sus scrofa) (UniProt P00791); experiment: Evaluated for the percentage of inhibition of porcine pepsin at E-5M concentration
[3] = target: T2, Cathepsin D (Bos taurus) (UniProt P80209); experiment: Evaluated for the percentage of inhibition of bovine cathepsin D at E-5M concentration
T2 sequence (whole entry): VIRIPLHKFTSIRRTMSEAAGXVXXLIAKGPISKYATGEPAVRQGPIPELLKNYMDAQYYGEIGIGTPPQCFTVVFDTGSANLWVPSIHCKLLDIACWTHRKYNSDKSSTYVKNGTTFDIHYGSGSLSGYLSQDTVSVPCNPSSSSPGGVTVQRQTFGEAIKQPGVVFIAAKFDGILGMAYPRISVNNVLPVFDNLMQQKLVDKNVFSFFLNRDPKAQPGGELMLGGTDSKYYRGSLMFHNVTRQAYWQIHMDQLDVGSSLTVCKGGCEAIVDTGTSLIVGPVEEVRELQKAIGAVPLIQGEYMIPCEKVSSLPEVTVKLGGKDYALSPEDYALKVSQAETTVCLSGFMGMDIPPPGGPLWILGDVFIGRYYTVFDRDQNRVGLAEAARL

[4] = target: Pepsin A (Sus scrofa) (UniProt P00791); experiment: Compound is evaluated for the percentage of inhibition of […] 10 e-5M concentration in porcine pepsin
[5] = target: T2, Cathepsin D (Bos taurus); experiment: Compound is evaluated for the percentage of inhibition of […] 10e-5 M concentration in, bovine cathepsin D
[6] = target: T3, Renin (Homo sapiens) (UniProt P00797); experiment: Evaluated in vitro for inhibitory potency against renin at 10e-6 M
T3 sequence (whole entry): T1 sequence (P00797 whole entry)

[7] = target: T3, Renin (Homo sapiens); experiment: Evaluated in vitro for inhibitory potency against renin at 10e-5 M

Chain of Pepsin A (Sus scrofa) (P00791 60-385 limits assumed): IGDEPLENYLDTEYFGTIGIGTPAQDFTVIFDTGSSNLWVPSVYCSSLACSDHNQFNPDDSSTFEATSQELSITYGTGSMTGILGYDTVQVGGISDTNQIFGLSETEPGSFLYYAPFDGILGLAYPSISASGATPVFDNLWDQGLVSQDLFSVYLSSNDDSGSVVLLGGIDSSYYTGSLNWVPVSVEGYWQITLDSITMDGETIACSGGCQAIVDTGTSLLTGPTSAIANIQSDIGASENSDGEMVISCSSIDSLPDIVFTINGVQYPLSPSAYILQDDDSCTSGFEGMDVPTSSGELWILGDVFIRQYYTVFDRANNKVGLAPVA

| Structure (SMILES) | IC50 [1] | inhibition [2] | inhibition [3] | also measured |
| --- | --- | --- | --- | --- |
| CC(C)CSC[C@H](O)[C@H](CC1CCCCC1)NC(=O)[C@H](Cc1c[nH]cn1)NC(=O)[C@H](Cc1ccccc1)NC(=O)OC(C)(C)C | 6.5 nM | – | – | – |
| CC(C)S(=O)(=O)C[C@H](O)[C@H](CC1CCCCC1)NC(=O)C(Cc1c[nH]cn1)NC(=O)C(Cc1ccccc1)Cc1ccccc1 (stereo not given in full) | – | 0% | 0% | – |
| CC(C)(C)OC(=O)N[C@@H](Cc1ccccc1)C(=O)N[C@@H](Cc1c[nH]cn1)C(=O)N[C@@H](Cc1ccccc1)[C@@H](O)CSC1CCCCC1 | 15 nM | 4% | 0% | – |
| O=C(NC(Cc1cnc[nH]1)C(=O)N[C@@H](CC1CCCCC1)[C@@H](O)CS(=O)(=O)C1CCCCC1)C(Cc1ccccc1)Cc1ccccc1 (stereo not given in full) | 40 nM | – | – | – |
| CC(C)S(=O)(=O)C[C@H](O)[C@H](CC1CCCCC1)NC(=O)[C@H](Cc1c[nH]cn1)NC(=O)[C@H](Cc1ccccc1)NC(=O)CC(C)(C)C [listing 1 of 3 here] | 3 nM | – | – | – |
| CC(C)C(=O)N[C@H](C(=O)N[C@@H](Cc1c[nH]cn1)C(=O)N[C@@H](CC1CCCCC1)[C@@H](O)CS(=O)(=O)C(C)C)[C@@H](C)OCc1ccccc1 | 10 nM | – | – | – |
| CC(C)S(=O)(=O)C[C@H](O)[C@H](CC1CCCCC1)NC(=O)[C@H](Cc1c[nH]cn1)NC(=O)[C@H](Cc1ccccc1)NC(=O)OC(C)(C)C | 2 nM | 0% | 0% | – |
| CC(C)S(=O)(=O)C[C@H](O)[C@H](CC1CCCCC1)NC(=O)[C@H](C)NC(=O)[C@H](Cc1ccccc1)NC(=O)OC(C)(C)C | 70 nM | 0% | 55% | – |
| CC(C)(C)OC(=O)N[C@@H](Cc1ccccc1)C(=O)N[C@@H](Cc1c[nH]cn1)C(=O)N[C@@H](CC1CCCCC1)[C@@H](O)CSC1CCCCC1 | 4 nM | – | – | inhibition [4]: 9%; inhibition [5]: 0% |
| CC(C)S(=O)(=O)C[C@H](O)[C@H](CC1CCCCC1)NC(=O)[C@H](Cc1c[nH]cn1)NC(=O)[C@@H](N)[C@@H](C)OCc1ccccc1 | 300 nM | – | – | – |
| CC(C)S(=O)(=O)C[C@H](O)[C@H](CC1CCCCC1)NC(=O)[C@H](CCO)NC(=O)[C@H](Cc1ccccc1)NC(=O)OC(C)(C)C | 20 nM | – | – | – |
| CSC[C@H](O)[C@H](CC1CCCCC1)NC(=O)[C@H](Cc1c[nH]cn1)NC(=O)[C@H](Cc1ccccc1)NC(=O)OC(C)(C)C | 10 nM | – | – | – |
| CC(C)S(=O)(=O)C[C@H](O)[C@H](CC1CCCCC1)NC(=O)[C@@H](NC(=O)[C@H](Cc1ccccc1)NC(=O)OC(C)(C)C)[C@@H](C)O | 8 nM | – | – | – |
| CC(C)S(=O)(=O)C[C@H](O)[C@H](CC1CCCCC1)NC(=O)[C@H](Cc1c[nH]cn1)NC(=O)[C@H](COCc1ccccc1)NC(=O)OC(C)(C)C | 75 nM | – | – | – |
| CC(C)S(=O)(=O)C[C@H](O)[C@H](CC1CCCCC1)NC(=O)[C@H](Cc1c[nH]cn1)NC(=O)[C@H](Cc1ccccc1)NC(=O)CC(C)(C)C [listing 2 of 3 here] | – | 0% | 0% | – |
| O=C(COc1ccccc1)NC(Cc1c[nH]cn1)C(=O)N[C@@H](CC1CCCCC1)[C@@H](O)CSC1CCCCC1 (stereo not given in full) | 430 nM | – | – | – |
| CC(C)(C)OC(=O)N[C@@H](Cc1ccccc1)C(=O)N[C@@H](Cc1c[nH]cn1)C(=O)N[C@@H](CC1CCCCC1)[C@@H](O)CS(C)(=O)=O | 40 nM | – | – | – |
| CC(C)S(=O)(=O)C[C@H](O)[C@H](CC1CCCCC1)NC(=O)C(Cc1cnc[nH]1)NC(=O)C(Cc1ccccc1)Cc1ccccc1 (stereo not given in full) | 70 nM | – | – | – |
| CC(C)(C)OC(=O)N[C@@H](Cc1ccccc1)C(=O)N[C@@H](Cc1c[nH]cn1)C(=O)N[C@@H](CC1CCCCC1)[C@H](O)CSC1CCCCC1 | 100 nM | – | – | – |
| CC(C)S(=O)(=O)C[C@H](O)[C@H](CC1CCCCC1)NC(=O)[C@H](Cc1c[nH]cn1)NC(=O)[C@@H](NC(=O)OC(C)(C)C)[C@@H](C)OCc1ccccc1 | 5.5 nM | 0% | 0% | – |

| Structure (SMILES) | IC50 [1] | inhibition [2] | inhibition [3] | also measured |
| --- | --- | --- | --- | --- |
| CC(C)SC[C@H](O)[C@H](CC1CCCCC1)NC(=O)[C@H](Cc1c[nH]cn1)NC(=O)[C@H](Cc1ccccc1)NC(=O)OC(C)(C)C | 4 nM | – | – | inhibition [4]: 0%; inhibition [5]: 0% |
| CCOC(=O)N[C@@H](Cc1ccccc1)C(=O)N[C@@H](Cc1c[nH]cn1)C(=O)N[C@@H](CC1CCCCC1)[C@@H](O)CS(=O)(=O)C(C)C | 5 nM | – | – | – |
| CCOC(=O)N[C@H](C(=O)N[C@@H](Cc1c[nH]cn1)C(=O)N[C@@H](CC1CCCCC1)[C@@H](O)CS(=O)(=O)C(C)C)[C@@H](C)OCc1ccccc1 | 20 nM | – | – | – |
| CC(C)S(=O)(=O)C[C@H](O)[C@H](CC1CCCCC1)NC(=O)[C@H](Cc1c[nH]cn1)NC(=O)[C@H](Cc1ccccc1)NC(=O)CC(C)(C)C [listing 3 of 3 here] | 3.5 nM | – | – | – |
| CC(C)S(=O)(=O)C[C@H](O)[C@H](CC1CCCCC1)NC(=O)[C@H](CCCCN)NC(=O)[C@H](Cc1ccccc1)NC(=O)OC(C)(C)C | – | – | – | inhibition [6]: 34% |
| CC(C)S(=O)(=O)C[C@H](O)[C@H](CC1CCCCC1)NC(=O)[C@@H](NC(=O)[C@H](Cc1ccccc1)NC(=O)OC(C)(C)C)[C@@H](C)OCc1ccccc1 | 6 nM | 18% | 95% | – |
| CC(C)S(=O)(=O)C[C@H](O)[C@H](CC1CCCCC1)NC(=O)C(Cc1c[nH]cn1)NC(=O)[C@@H](Cc1ccccc1)NC(=O)OC(C)(C)C (stereo not given in full) | 150 nM | 0% | 0% | – |
| CC(C)SC[C@H](O)[C@H](CC1CCCCC1)NC(=O)[C@H](C)NC(=O)[C@H](Cc1ccccc1)NC(=O)OC(C)(C)C | 9.9 nM | – | – | – |
| O=C(NC(Cc1cnc[nH]1)C(=O)N[C@@H](CC1CCCCC1)[C@@H](O)CSC1CCCCC1)C(Cc1ccccc1)Cc1ccccc1 (stereo not given in full) | 20 nM | – | – | – |
| COc1ccc(C[C@H](NC(=O)OC(C)(C)C)C(=O)N[C@@H](Cc2c[nH]cn2)C(=O)N[C@@H](CC2CCCCC2)[C@@H](O)CS(=O)(=O)C(C)C)cc1 | 3 nM | 0% | 0% | – |
| O=C(NC(Cc1c[nH]cn1)C(=O)N[C@@H](CC1CCCCC1)[C@@H](O)CSC1CCCCC1)C(Cc1ccccc1)Cc1ccccc1 (stereo not given in full) | – | 0% | 0% | – |
| CC(C)C[C@H](NC(=O)[C@H](Cc1ccccc1)NC(=O)OC(C)(C)C)C(=O)N[C@@H](CC1CCCCC1)[C@@H](O)CS(=O)(=O)C(C)C | 4 nM | – | – | – |
| CC(C)S(=O)(=O)C[C@H](O)[C@H](CC1CCCCC1)NC(=O)[C@H](CCCN)NC(=O)[C@H](Cc1ccccc1)NC(=O)OC(C)(C)C | – | – | – | inhibition [6]: 43% |
| CC(C)S(=O)(=O)C[C@H](O)[C@H](CC1CCCCC1)NC(=O)[C@H](CCCCNC(=O)OCc1ccccc1)NC(=O)[C@H](Cc1ccccc1)NC(=O)OC(C)(C)C | 100 nM | – | – | – |
| CC(C)S(=O)(=O)C[C@H](O)[C@H](CC1CCCCC1)NC(=O)[C@H](Cc1ccccc1)NC(=O)[C@H](Cc1ccccc1)NC(=O)OC(C)(C)C | 30 nM | 4% | 0% | – |
| CC(C)CC(NC(=O)C(Cc1ccccc1)Cc1ccccc1)C(=O)N[C@@H](CC1CCCCC1)[C@@H](O)CS(=O)(=O)C(C)C (stereo not given in full) | 25 nM | – | – | – |
| CC(C)S(=O)(=O)C[C@H](O)[C@H](CC1CCCCC1)NC(=O)[C@H](CCCNC(=O)OCc1ccccc1)NC(=O)[C@H](Cc1ccccc1)NC(=O)OC(C)(C)C | 60 nM | – | – | – |
| CC(C)(C)OC(=O)NC(Cc1c[nH]cn1)C(=O)N[C@@H](CC1CCCCC1)[C@@H](O)CS(=O)(=O)C1CCCCC1 (stereo not given in full) | – | – | – | inhibition [7]: 5% |
| CC(=O)NCCCC[C@H](NC(=O)[C@H](Cc1ccccc1)NC(=O)OC(C)(C)C)C(=O)N[C@@H](CC1CCCCC1)[C@@H](O)CS(=O)(=O)C(C)C | 300 nM | – | – | – |
| CC(C)S(=O)(=O)C[C@H](O)[C@H](CC1CCCCC1)NC(=O)[C@H](CO)NC(=O)[C@H](Cc1ccccc1)NC(=O)OC(C)(C)C | 40 nM | 0% | 47% | – |
